{"source": "ChEMBL document CHEMBL1201862", "about": "“PubChem BioAssay data set” (2004)", "experiment_in_all_cases": "DTP human tumour cell line panel, 48 h", "key": {"HT-29": {"test_system": "HT-29"}, "HCT-116": {"test_system": "HCT-116"}, "M19-MEL": {"test_system": "M19-MEL"}, "KM-20L2": {"test_system": "KM-20L2"}, "UACC-62": {"test_system": "UACC-62"}, "OVCAR-8": {"test_system": "OVCAR-8"}, "SK-MEL-28": {"test_system": "SK-MEL-28"}, "SNB-78": {"test_system": "SNB-78"}, "CAKI-1": {"test_system": "CAKI-1"}, "NCI-H460": {"test_system": "NCI-H460"}, "HCT-15": {"test_system": "HCT-15"}, "SNB-19": {"test_system": "SNB-19"}, "DMS-273": {"test_system": "DMS-273"}, "OVCAR-3": {"test_system": "OVCAR-3"}, "HOP-92": {"test_system": "HOP-92"}, "786-0": {"test_system": "786-0"}, "SF-539": {"test_system": "SF-539"}, "HOP-62": {"test_system": "HOP-62"}, "HCC 2998": {"test_system": "HCC 2998"}, "ACHN": {"test_system": "ACHN"}, "SF-295": {"test_system": "SF-295"}, "M14": {"test_system": "M14"}, "OVCAR-4": {"test_system": "OVCAR-4"}, "KM12": {"test_system": "KM12"}, "A549": {"test_system": "A549"}, "NCI-H522": {"test_system": "NCI-H522"}, "TK-10": {"test_system": "TK-10"}, "SK-MEL-2": {"test_system": "SK-MEL-2"}, "SF-268": {"test_system": "SF-268"}, "SW-620": {"test_system": "SW-620"}, "U-251": {"test_system": "U-251"}, "SN12C": {"test_system": "SN12C"}, "NCI-H23": {"test_system": "NCI-H23"}, "EKVX": {"test_system": "EKVX"}, "LOX IMVI": {"test_system": "LOX IMVI"}, "SK-MEL-5": {"test_system": "SK-MEL-5"}, "UO-31": {"test_system": "UO-31"}, "IGROV-1": {"test_system": "IGROV-1"}, "DLD-1": {"test_system": "DLD-1"}, "LXFL 529": {"test_system": "LXFL 529"}, "UACC-257": {"test_system": "UACC-257"}, "DMS-114": {"test_system": "DMS-114"}, "RPMI-8226": {"test_system": "RPMI-8226"}, "CCRF-CEM": {"test_system": "CCRF-CEM"}, "RXF 393": {"test_system": "RXF 393"}, "SNB-75": {"test_system": "SNB-75"}, "SR": {"test_system": "SR"}, "HL-60": {"test_system": "HL-60"}, "Malme-3M": {"test_system": "Malme-3M"}, "SK-OV-3": {"test_system": "SK-OV-3"}, "K562": {"test_system": "K562"}, "COLO 205": {"test_system": "COLO 205"}, "MOLT-4": {"test_system": "MOLT-4"}}, "note": "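These data come from cells grown in 96-well plates and exposed to compound for 48 hours at five concentrations. The concentration for 50% growth inhibition is given as GI50.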 Calls of active or inactive are those of the source. Cut-off read from the data, not from the text of the source: active = GI50 up to about 1.1 µM and inactive = higher.", "data": [{"smiles": "Cc1ccc(C(=O)NC(C)C)cc1/N=N/N(C)C", "values": [{"measurement": "GI50", "setting": "HT-29", "result": "> 100 µM (inactive)"}, {"measurement": "GI50", "setting": "HCT-116", "result": "> 100 µM (inactive)"}, {"measurement": "GI50", "setting": "M19-MEL", "result": "> 100 µM (inactive)"}, {"measurement": "GI50", "setting": "KM-20L2", "result": "> 100 µM (inactive)"}, {"measurement": "GI50", "setting": "UACC-62", "result": "> 100 µM (inactive)"}, {"measurement": "GI50", "setting": "OVCAR-8", "result": "> 100 µM (inactive)"}, {"measurement": "GI50", "setting": "SK-MEL-28", "result": "> 100 µM (inactive)"}, {"measurement": "GI50", "setting": "SNB-78", "result": "> 100 µM (inactive)"}, {"measurement": "GI50", "setting": "CAKI-1", "result": "> 100 µM (inactive)"}, {"measurement": "GI50", "setting": "NCI-H460", "result": "> 100 µM (inactive)"}, {"measurement": "GI50", "setting": "HCT-15", "result": "> 100", "unit": "µM"}, {"measurement": "GI50", "setting": "SNB-19", "result": "> 100 µM (inactive)"}, {"measurement": "GI50", "setting": "DMS-273", "result": "> 100 µM (inactive)"}, {"measurement": "GI50", "setting": "OVCAR-3", "result": "> 100 µM (inactive)"}, {"measurement": "GI50", "setting": "HOP-92", "result": "> 100 µM (inactive)"}, {"measurement": "GI50", "setting": "786-0", "result": "> 100 µM (inactive)"}, {"measurement": "GI50", "setting": "SF-539", "result": "> 100 µM (inactive)"}, {"measurement": "GI50", "setting": "HOP-62", "result": "> 100 µM (inactive)"}, {"measurement": "GI50", "setting": "HCC 2998", "result": "> 100 µM (inactive)"}, {"measurement": "GI50", "setting": "ACHN", "result": "> 100 µM (inactive)"}, {"measurement": "GI50", "setting": "SF-295", "result": "> 100 µM (inactive)"}, {"measurement": "GI50", "setting": "M14", "result": "> 100 µM (inactive)"}, {"measurement": "GI50", "setting": "OVCAR-4", "result": "> 100 µM (inactive)"}, {"measurement": "GI50", "setting": "KM12", "result": "> 100 µM (inactive)"}, {"measurement": "GI50", "setting": "A549", "result": "> 100 µM (inactive)"}, {"measurement": "GI50", "setting": "NCI-H522", "result": "> 100 µM (inactive)"}, {"measurement": "GI50", "setting": "TK-10", "result": "> 100 µM (inactive)"}, {"measurement": "GI50", "setting": "SK-MEL-2", "result": "> 100 µM (inactive)"}, {"measurement": "GI50", "setting": "SF-268", "result": "> 100 µM (inactive)"}, {"measurement": "GI50", "setting": "SW-620", "result": "> 100 µM (inactive)"}, {"measurement": "GI50", "setting": "U-251", "result": "> 100 µM (inactive)"}, {"measurement": "GI50", "setting": "SN12C", "result": "> 100 µM (inactive)"}, {"measurement": "GI50", "setting": "NCI-H23", "result": "> 100 µM (inactive)"}, {"measurement": "GI50", "setting": "EKVX", "result": "> 100 µM (inactive)"}, {"measurement": "GI50", "setting": "LOX IMVI", "result": "> 100 µM (inactive)"}, {"measurement": "GI50", "setting": "SK-MEL-5", "result": "> 100 µM (inactive)"}, {"measurement": "GI50", "setting": "UO-31", "result": "> 100 µM (inactive)"}, {"measurement": "GI50", "setting": "IGROV-1", "result": "> 100 µM (inactive)"}, {"measurement": "GI50", "setting": "DLD-1", "result": "65 µM (inactive)"}, {"measurement": "GI50", "setting": "LXFL 529", "result": "> 100 µM (inactive)"}, {"measurement": "GI50", "setting": "UACC-257", "result": "> 100 µM (inactive)"}]}, {"smiles": "COc1cc(-c2cc(O)c3ccccc3n2)cc(OC)c1OC", "values": [{"measurement": "GI50", "setting": "HT-29", "result": "> 75 µM (inactive)"}, {"measurement": "GI50", "setting": "DMS-114", "result": "> 75 µM (inactive)"}, {"measurement": "GI50", "setting": "HCT-116", "result": "> 75 µM (inactive)"}, {"measurement": "GI50", "setting": "M19-MEL", "result": "> 75 µM (inactive)"}, {"measurement": "GI50", "setting": "RPMI-8226", "result": "> 75 µM (inactive)"}, {"measurement": "GI50", "setting": "CCRF-CEM", "result": "> 75 µM (inactive)"}, {"measurement": "GI50", "setting": "KM-20L2", "result": "> 75 µM (inactive)"}, {"measurement": "GI50", "setting": "RXF 393", "result": "> 75 µM (inactive)"}, {"measurement": "GI50", "setting": "UACC-62", "result": "> 75 µM (inactive)"}, {"measurement": "GI50", "setting": "OVCAR-8", "result": "> 75 µM (inactive)"}, {"measurement": "GI50", "setting": "SK-MEL-28", "result": "> 75 µM (inactive)"}, {"measurement": "GI50", "setting": "SNB-78", "result": "> 75 µM (inactive)"}, {"measurement": "GI50", "setting": "NCI-H460", "result": "> 75 µM (inactive)"}, {"measurement": "GI50", "setting": "HCT-15", "result": "> 75", "unit": "µM"}, {"measurement": "GI50", "setting": "SNB-19", "result": "> 75 µM (inactive)"}, {"measurement": "GI50", "setting": "DMS-273", "result": "> 75 µM (inactive)"}, {"measurement": "GI50", "setting": "OVCAR-3", "result": "> 75 µM (inactive)"}, {"measurement": "GI50", "setting": "786-0", "result": "> 75 µM (inactive)"}, {"measurement": "GI50", "setting": "SF-539", "result": "> 75 µM (inactive)"}, {"measurement": "GI50", "setting": "HOP-62", "result": "> 75 µM (inactive)"}, {"measurement": "GI50", "setting": "HCC 2998", "result": "> 75 µM (inactive)"}, {"measurement": "GI50", "setting": "ACHN", "result": "> 75 µM (inactive)"}, {"measurement": "GI50", "setting": "SNB-75", "result": "50.5 µM (inactive)"}, {"measurement": "GI50", "setting": "SF-295", "result": "> 75 µM (inactive)"}, {"measurement": "GI50", "setting": "SR", "result": "> 75 µM (inactive)"}, {"measurement": "GI50", "setting": "M14", "result": "> 75 µM (inactive)"}, {"measurement": "GI50", "setting": "HL-60", "result": "> 7.5 µM (inactive)"}, {"measurement": "GI50", "setting": "KM12", "result": "> 75 µM (inactive)"}, {"measurement": "GI50", "setting": "A549", "result": "> 75 µM (inactive)"}, {"measurement": "GI50", "setting": "NCI-H522", "result": "> 75 µM (inactive)"}, {"measurement": "GI50", "setting": "TK-10", "result": "> 75 µM (inactive)"}, {"measurement": "GI50", "setting": "Malme-3M", "result": "> 75 µM (inactive)"}, {"measurement": "GI50", "setting": "SF-268", "result": "> 75 µM (inactive)"}, {"measurement": "GI50", "setting": "SW-620", "result": "> 75 µM (inactive)"}, {"measurement": "GI50", "setting": "U-251", "result": "> 75 µM (inactive)"}, {"measurement": "GI50", "setting": "SN12C", "result": "> 75 µM (inactive)"}, {"measurement": "GI50", "setting": "NCI-H23", "result": "> 75 µM (inactive)"}, {"measurement": "GI50", "setting": "EKVX", "result": "> 75 µM (inactive)"}, {"measurement": "GI50", "setting": "SK-OV-3", "result": "> 75 µM (inactive)"}, {"measurement": "GI50", "setting": "K562", "result": "> 75 µM (inactive)"}, {"measurement": "GI50", "setting": "LOX IMVI", "result": "> 75 µM (inactive)"}, {"measurement": "GI50", "setting": "UO-31", "result": "51.3 µM (inactive)"}, {"measurement": "GI50", "setting": "COLO 205", "result": "> 75 µM (inactive)"}, {"measurement": "GI50", "setting": "MOLT-4", "result": "> 75 µM (inactive)"}, {"measurement": "GI50", "setting": "DLD-1", "result": "> 75 µM (inactive)"}, {"measurement": "GI50", "setting": "LXFL 529", "result": "> 75 µM (inactive)"}, {"measurement": "GI50", "setting": "UACC-257", "result": "> 75 µM (inactive)"}]}]}
